Test results from patent US20100063080A1, “CXCR2 inhibitors” (priority 2006, published 2010).

Target: T1, human CXCR2 receptor (Homo sapiens, UniProt P25025)
T1 construct: purchased Biosignal Packard Inc; host or cells: CHO-K1 membranes
T1 sequence (P25025 1-360): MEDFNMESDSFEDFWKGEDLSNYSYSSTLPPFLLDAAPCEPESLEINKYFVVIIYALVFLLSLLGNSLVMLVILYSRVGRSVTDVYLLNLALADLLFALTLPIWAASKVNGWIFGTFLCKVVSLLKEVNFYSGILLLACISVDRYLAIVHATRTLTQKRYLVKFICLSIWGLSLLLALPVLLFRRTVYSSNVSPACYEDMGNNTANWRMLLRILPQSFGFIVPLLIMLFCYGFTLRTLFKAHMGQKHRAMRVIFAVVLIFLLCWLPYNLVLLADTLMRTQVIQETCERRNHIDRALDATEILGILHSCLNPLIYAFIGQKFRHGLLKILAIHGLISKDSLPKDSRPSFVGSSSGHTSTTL
Assay: [35S]-GTPγS binding assay for human CXCR2 receptor using SPA technology
Format: biochemical
Conditions: CHO-K1 membranes expressing human CXCR2; 100 nM IL-8; read-out: IC50 in the [35S]-GPTγS binding assay
Description: [^35S]-GTPγS Binding Assay for Human CXCR2 Receptor using SPA Technology
[^35S]-GTPγS (with specific activity 1082 Ci/mmol) and wheat germ agglutinin poly vinyl toluene scintillation proximity beads are purchased from Amersham Pharmacia Biotech. The Chinese hamster ovary cell (CHO-K1) membranes expressing human CXCR2 receptors are purchased from Biosignal Packard Inc. All other chemicals are of analytical grade. White non-binding surface 96 well Optiplate™ microplates are obtained from Packard. Recombinant human IL-8 is synthesised, cloned and expressed in Escherichia coli as described previously (Lindley I, et al., Proc. Natl. Acad. Sci., 1988, 85(23):9199). The assay is performed in duplicate in 96 well Optiplate™ microplate in a final volume of 250 μl per well. Compounds are diluted in DMSO (0.5% final concentration) and incubated in 20 mM HEPES buffer pH 7.4 containing 10 mM MgCl2, 100 mM NaCl, 1 mM EDTA plus 100 nM IL-8, 50 μM GDP and […] [^35S]GTPγS per well. SPA beads (1 mg/well final concentration) were pre-mixed with the membranes (10 μg/well final concentration) in assay buffer: 20 mM HEPES buffer pH 7.4 containing 10 mM MgCl2, 100 mM NaCl, 1 mM EDTA. […] The plate is centrifuged and read on Packard TopCount™ scintillation counter, program [^35S dpm] for 1 min/well. Data are expressed as the % response to 100 nM IL-8 minus basal.

Row | SMILES | IC50
1 | CCC1CCCN1C(=O)C1CC1c1nc(SCc2cccc(F)c2F)nc(O)c1C#N (centres unmarked) [Example 43, 2-(2,3-Difluoro-benzylsulfanyl)-4-[2-(2-ethyl-pyrrolidine-1carbonyl)-cyclopropyl]-6-hydroxypyrimidine-5-carbonitrile] | 230 nM
2 | CCOC(=O)CNC(=O)[C@@H]1C[C@H]1c1nc(SCc2cccc(F)c2F)nc(O)c1C#N (relative stereo) [Example 49, Trans-({2-[5-Cyano-2-(2,3-difluoro-benzylsulfanyl)-6-hydroxy-pyrimidin-4-yl]-cyclopropanecarbonyl}-amino)-acetic acid ethyl ester] | 820 nM
